For orientation: Ki means a measure of affinity in units of concentration, obtained from inhibition or displacement.

This passage reports Ki results from patent US7514448B2, “Azaindoles useful as inhibitors of rock and other protein kinases” (Vertex Pharmaceuticals Incorporated, priority 2004, dated 2009).

Holding throughout (format): biochemical
The target in one test is T1, Itk (Homo sapiens, UniProt Q08881).
T1 sequence (Q08881 1-620): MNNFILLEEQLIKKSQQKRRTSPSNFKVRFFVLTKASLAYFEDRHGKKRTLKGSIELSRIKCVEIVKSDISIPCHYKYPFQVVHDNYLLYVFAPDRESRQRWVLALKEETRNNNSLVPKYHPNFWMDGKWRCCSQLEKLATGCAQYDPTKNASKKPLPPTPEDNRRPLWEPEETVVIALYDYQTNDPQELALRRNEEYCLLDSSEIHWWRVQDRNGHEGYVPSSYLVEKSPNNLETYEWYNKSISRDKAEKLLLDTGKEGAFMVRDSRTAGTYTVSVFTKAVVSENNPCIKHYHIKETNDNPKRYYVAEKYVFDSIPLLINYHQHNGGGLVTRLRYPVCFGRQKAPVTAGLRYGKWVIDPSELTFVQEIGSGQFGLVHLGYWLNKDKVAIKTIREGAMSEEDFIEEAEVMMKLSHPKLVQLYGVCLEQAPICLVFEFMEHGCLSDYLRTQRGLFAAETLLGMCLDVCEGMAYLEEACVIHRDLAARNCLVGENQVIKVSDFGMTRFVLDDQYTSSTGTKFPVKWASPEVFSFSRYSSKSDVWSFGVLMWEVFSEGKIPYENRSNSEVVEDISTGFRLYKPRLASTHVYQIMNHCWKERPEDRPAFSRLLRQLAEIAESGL
Nature of the test: Itk inhibition assay, coupled enzyme. The settings on record: average Ki if more than one determined. As for the experimental part:
Compounds were screened for their ability to inhibit Itk using a standard coupled enzyme assay (Fox et al., Protein Sci., (1998) 7, 2249). Assays were carried out in a mixture of 20 mM MOPS (pH 7.0), 10 mM MgCl2, 0.1% BSA, 1 mM DTT, 2.5 mM phosphoenolpyruvate, 300 μM NADH, 30 μg/ml pyruvate kinase and 10 μg/ml lactate dehydrogenase. Final substrate concentrations in the assay were 100 μM ATP (Sigma Chemicals) and 3 μM peptide (Biotinylated SAM68 D332-443). Assays were carried out at 25° C. and in the presence of 100 nM Itk.
An assay stock buffer solution was prepared containing all of the reagents listed above, with the exception of ATP and the test compound of interest. 60 μl of the stock solution was placed in a 96 well plate followed by addition of 2 μl of DMSO stock containing serial dilutions of the test compound (typically starting from a final concentration of 15 μM). The plate was preincubated for 10 minutes at 25° C. and the reaction initiated by addition of 5 μl of ATP. Initial reaction rates were determined with a Molecular Devices SpectraMax Plus plate reader over a 10 minute time course. IC50 and Ki data were calculated from non-linear regression analysis using the Prism software package (GraphPad Prism version 3.0cx for Macintosh, GraphPad Software, San Diego Calif., USA).

A further test addresses PKA (Homo sapiens, UniProt P17612). Nature of the test: PKA inhibition assay, coupled enzyme. The note with it: average Ki if more than one determined. In a few lines:
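Coupled PK/LDH assay following NADH depletion: 18 nM PKA, 50 μM ATP, 80 μM Kemptide in 100 mM HEPES pH 7.5, 10 mM MgCl2, 25 mM NaCl, 1 mM DTT, 3% DMSO, at 30 °C. Compound preincubated 10 min before ATP start; initial rates over 15 min, IC50 and Ki by non-linear regression.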

In a further test the target is ROCK (Homo sapiens, UniProt Q13464). Nature of the test: ROCK radioactive assay ("33P"). The note with it: radioactive assay; average Ki if more than one determined; read-out: ROCK 33P Ki. An excerpt:
(§1) If more than one value of Ki has been determined, the average Ki is indicated. If no value is indicated, then the Ki was not determined.

In a further test the target is ROCK I (AA 6-553) (Homo sapiens, UniProt Q13464). As to the kind of experiment: ROCK inhibition assay, coupled enzyme system ("Enzyme"). The note with it: enzyme-linked assay; average Ki if more than one determined. As for the experimental part:
Reactions were carried out in a solution containing 100 mM HEPES (pH 7.5), 10 mM MgCl2, 25 mM NaCl, 2 mM DTT and 1.5% DMSO.
as §1

A value given as a limit tells only on which side of the number the result lay.

ROCK, sequence (Q13464 whole entry): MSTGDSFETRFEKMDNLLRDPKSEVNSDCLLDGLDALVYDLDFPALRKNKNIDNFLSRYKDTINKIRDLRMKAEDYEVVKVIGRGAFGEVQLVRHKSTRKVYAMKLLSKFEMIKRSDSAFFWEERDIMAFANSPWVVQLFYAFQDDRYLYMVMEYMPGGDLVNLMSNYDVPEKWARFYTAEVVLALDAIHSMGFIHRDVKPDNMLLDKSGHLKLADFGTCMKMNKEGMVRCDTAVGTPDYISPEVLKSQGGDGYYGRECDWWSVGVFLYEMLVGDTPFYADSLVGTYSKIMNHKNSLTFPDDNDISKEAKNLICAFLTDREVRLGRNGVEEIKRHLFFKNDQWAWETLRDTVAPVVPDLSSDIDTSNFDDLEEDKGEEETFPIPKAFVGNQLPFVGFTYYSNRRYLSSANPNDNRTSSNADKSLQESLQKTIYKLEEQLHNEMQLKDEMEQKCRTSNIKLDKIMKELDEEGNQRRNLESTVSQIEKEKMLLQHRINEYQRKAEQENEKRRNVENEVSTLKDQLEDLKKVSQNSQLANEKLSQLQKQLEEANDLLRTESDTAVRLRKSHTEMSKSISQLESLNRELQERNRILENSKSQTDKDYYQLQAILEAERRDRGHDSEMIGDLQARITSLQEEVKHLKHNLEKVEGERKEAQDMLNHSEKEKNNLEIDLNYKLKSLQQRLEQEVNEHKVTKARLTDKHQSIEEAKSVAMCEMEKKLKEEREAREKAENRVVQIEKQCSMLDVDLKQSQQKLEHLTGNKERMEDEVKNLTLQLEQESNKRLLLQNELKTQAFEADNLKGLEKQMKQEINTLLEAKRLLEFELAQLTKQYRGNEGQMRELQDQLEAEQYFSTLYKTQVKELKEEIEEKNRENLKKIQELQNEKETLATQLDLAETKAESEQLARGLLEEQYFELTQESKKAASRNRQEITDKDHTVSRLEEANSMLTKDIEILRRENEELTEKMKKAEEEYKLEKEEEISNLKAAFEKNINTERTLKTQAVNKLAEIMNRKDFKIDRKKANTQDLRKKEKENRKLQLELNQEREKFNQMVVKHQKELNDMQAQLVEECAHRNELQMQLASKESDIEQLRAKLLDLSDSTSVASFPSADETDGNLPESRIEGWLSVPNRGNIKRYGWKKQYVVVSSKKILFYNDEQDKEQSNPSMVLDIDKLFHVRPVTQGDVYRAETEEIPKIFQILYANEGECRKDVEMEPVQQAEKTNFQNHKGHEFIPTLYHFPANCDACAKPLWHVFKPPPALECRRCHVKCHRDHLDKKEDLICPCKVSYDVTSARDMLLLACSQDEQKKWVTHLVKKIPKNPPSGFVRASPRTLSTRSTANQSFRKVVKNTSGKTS
ROCK I (AA 6-553), sequence (Q13464 6-553, species assumed): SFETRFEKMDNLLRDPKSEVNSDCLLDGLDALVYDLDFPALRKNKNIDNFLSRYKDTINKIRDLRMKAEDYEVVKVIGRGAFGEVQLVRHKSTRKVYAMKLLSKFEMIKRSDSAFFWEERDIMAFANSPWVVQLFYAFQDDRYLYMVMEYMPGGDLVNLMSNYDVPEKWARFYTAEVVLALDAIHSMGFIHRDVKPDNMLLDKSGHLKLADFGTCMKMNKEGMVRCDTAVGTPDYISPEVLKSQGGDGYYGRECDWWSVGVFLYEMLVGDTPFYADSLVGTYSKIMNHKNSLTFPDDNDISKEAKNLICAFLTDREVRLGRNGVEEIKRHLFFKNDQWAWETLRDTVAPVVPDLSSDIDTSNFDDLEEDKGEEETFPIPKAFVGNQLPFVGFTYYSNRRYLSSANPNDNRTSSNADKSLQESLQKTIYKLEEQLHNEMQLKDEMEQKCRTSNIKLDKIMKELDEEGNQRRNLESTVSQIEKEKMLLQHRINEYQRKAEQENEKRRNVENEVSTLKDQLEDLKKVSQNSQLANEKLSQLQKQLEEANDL

For `O=C(Cc1ccccc1)Nc1nc(-c2c[nH]c3ncccc23)cs1` [I-1], the Ki was 500 to 5000 nM at Itk and below 500 nM on PKA.
As to `CN1CCN(S(=O)(=O)c2cccc(CC(=O)Nc3nc(-c4c[nH]c5ncccc45)cs3)c2)CC1` [II-51], the Ki at ROCK, on PKA and on ROCK I (AA 6-553) was below 500 nM throughout.
Turning to `O=C(Cc1ccccc1)Nc1nc(-c2c[nH]c3ncc(Cl)cc23)cs1` [II-102], the Ki on PKA and on ROCK I (AA 6-553) was below 500 nM in each case.
On to `COc1cccc(CC(=O)Nc2nc(-c3c[nH]c4ncc(Cl)cc34)cs2)c1` [II-103], for which the Ki at PKA and at ROCK I (AA 6-553) was below 500 nM throughout.
As for `CS(=O)(=O)Nc1cccc(CC(=O)Nc2nc(-c3c[nH]c4ncc(Cl)cc34)cs2)c1` [II-104], the Ki on PKA was 500 to 5000 nM; on ROCK I (AA 6-553), below 500 nM.
As for `O=C(Cc1cccc(S(=O)(=O)N2CCOCC2)c1)Nc1nc(-c2c[nH]c3ncc(Cl)cc23)cs1` [II-105], the Ki on PKA is 500 to 5000 nM; on ROCK I (AA 6-553) it was below 500 nM.
Regarding `CS(=O)(=O)Nc1cccc(CNC(=O)c2cc(-c3c[nH]c4ncccc34)cs2)c1` [II-106], the Ki on PKA and at ROCK I (AA 6-553) was below 500 nM in each case.
For `O=C(Cc1cccc(S(=O)(=O)N2CCOCC2)c1)Nc1nc(-c2c[nH]c3ncc(Br)cc23)cs1` [II-107], the figures for the Ki on PKA and on ROCK I (AA 6-553) were 500 to 5000 nM and below 500 nM, respectively.
On to `O=C(Cc1ccc(OCCN2CCNCC2)cc1Cl)Nc1nc(-c2c[nH]c3ncccc23)cs1` [II-108], for which the inhibition constant (Ki) was below 500 nM at ROCK, 500 to 5000 nM at PKA and below 500 nM at ROCK I (AA 6-553).
In the case of `CN1CCN(CCOc2ccc(CC(=O)Nc3nc(-c4c[nH]c5ncccc45)cs3)c(Cl)c2)CC1` [II-109], the Ki on ROCK was below 500 nM; at PKA, 500 to 5000 nM; at ROCK I (AA 6-553), below 500 nM.
On to `O=C(Cc1ccc(OCCCN2CCNCC2)cc1Cl)Nc1nc(-c2c[nH]c3ncccc23)cs1` [II-110], for which the figures for the Ki on ROCK, at PKA and at ROCK I (AA 6-553) were below 500 nM, 500 to 5000 nM and below 500 nM, respectively.
For `CN1CCN(CCCOc2ccc(CC(=O)Nc3nc(-c4c[nH]c5ncccc45)cs3)c(Cl)c2)CC1` [II-111], the inhibition constant (Ki) at ROCK is below 500 nM; at PKA, 500 to 5000 nM; on ROCK I (AA 6-553) it was below 500 nM.
As to `O=C(Cc1cccc(S(=O)(=O)N2CCCCC2)c1)Nc1nc(-c2c[nH]c3ncccc23)cs1` [II-112], the Ki at PKA is 500 to 5000 nM; on ROCK I (AA 6-553), below 500 nM.
With `CN(c1cccc(CC(=O)Nc2nc(-c3c[nH]c4ncccc34)cs2)c1)S(C)(=O)=O` [II-113], the Ki at PKA and on ROCK I (AA 6-553) was below 500 nM each time.
Regarding `COc1cccc(CNC(=O)c2csc(-c3c[nH]c4ncccc34)c2)c1` [II-114], the Ki on ROCK, on PKA and at ROCK I (AA 6-553) was below 500 nM in each case.
In the case of `CS(=O)(=O)Nc1cccc(CNC(=O)c2ccc(-c3c[nH]c4ncccc34)s2)c1` [II-115], the Ki at ROCK, on PKA and at ROCK I (AA 6-553) was below 500 nM throughout.
For `N#CCC(=O)Nc1nc(-c2c[nH]c3ncccc23)cs1` [II-116], the Ki on ROCK, at PKA and on ROCK I (AA 6-553) was below 500 nM in each case.
Take `CS(=O)(=O)Nc1cccc(CNC(=O)c2csc(-c3c[nH]c4ncccc34)c2)c1` [II-117]: the Ki on ROCK, at PKA and on ROCK I (AA 6-553) was below 500 nM throughout.
`O=C(Cc1ccccc1)Nc1nc(-c2c[nH]c3ncc(F)cc23)cs1` [II-118]: the inhibitory constant (Ki) at ROCK, at PKA and on ROCK I (AA 6-553) was below 500 nM each time.
As to `COc1cccc(CC(=O)Nc2nc(-c3c[nH]c4ncc(F)cc34)cs2)c1` [II-119], the Ki at ROCK, at PKA and at ROCK I (AA 6-553) was below 500 nM throughout.
Regarding `CS(=O)(=O)Nc1cccc(CC(=O)Nc2nc(-c3c[nH]c4ncc(F)cc34)cs2)c1` [II-120], the Ki at ROCK, at PKA and on ROCK I (AA 6-553) was below 500 nM each time.
In the case of `O=C(Cc1cccc(S(=O)(=O)N2CCOCC2)c1)Nc1nc(-c2c[nH]c3ncc(F)cc23)cs1` [II-121], the Ki on ROCK was below 500 nM; on PKA, 500 to 5000 nM; at ROCK I (AA 6-553), below 500 nM.
On to `O=C(Cc1ccc(F)cc1F)Nc1nc(-c2c[nH]c3ncc(F)cc23)cs1` [II-122], for which the Ki on ROCK, at PKA and on ROCK I (AA 6-553) was below 500 nM each time.
In the case of `O=C(Cc1cccc(S(=O)(=O)NCCCN2CCNCC2)c1)Nc1nc(-c2c[nH]c3ncccc23)cs1` [II-123], the Ki at ROCK, at PKA and on ROCK I (AA 6-553) was below 500 nM in each case.
Regarding `O=C(Cc1cccc(S(=O)(=O)N2CCC(O)C2)c1)Nc1nc(-c2c[nH]c3ncccc23)cs1` (centres unmarked) [II-124], the Ki at ROCK, at PKA and on ROCK I (AA 6-553) was below 500 nM each time.
Regarding `CN1CCN(CCCNS(=O)(=O)c2cccc(CC(=O)Nc3nc(-c4c[nH]c5ncccc45)cs3)c2)CC1` [II-125], the inhibitory constant (Ki) on ROCK, on PKA and at ROCK I (AA 6-553) was below 500 nM throughout.
Regarding `O=C(Cc1cccc(S(=O)(=O)NCCCN2CCOCC2)c1)Nc1nc(-c2c[nH]c3ncccc23)cs1` [II-126], the Ki at ROCK, at PKA and at ROCK I (AA 6-553) was below 500 nM each time.
For the compound `COc1cccc(CC(=O)Nc2ccc(-c3c[nH]c4ncccc34)s2)c1` [II-127], the inhibitory constant (Ki) at ROCK, at PKA and on ROCK I (AA 6-553) was below 500 nM each time.
`CS(=O)(=O)Nc1cccc(CC(=O)Nc2ccc(-c3c[nH]c4ncccc34)s2)c1` [II-128]: the Ki on ROCK, at PKA and on ROCK I (AA 6-553) was below 500 nM each time.
For the compound `O=C(Cc1cccc(S(=O)(=O)N2CCOCC2)c1)Nc1ccc(-c2c[nH]c3ncccc23)s1` [II-129], the Ki at ROCK is below 500 nM; at PKA, 500 to 5000 nM; at ROCK I (AA 6-553) it was below 500 nM.
On to `CC(C)C(=O)Nc1nc(-c2c[nH]c3ncccc23)cs1` [II-162], for which the inhibition constant Ki is 500 to 5000 nM on Itk, below 500 nM at ROCK and 500 to 5000 nM on PKA.
In the case of `O=C(NCC1CCNCC1)c1nc(-c2c[nH]c3ncc(-c4ccccc4)cc23)cs1` [II-245], the Ki on Itk was 500 to 5000 nM; on ROCK, below 500 nM; on PKA, 500 to 5000 nM.
Consider `O=C(Nc1nc(-c2c[nH]c3ncc(Br)cc23)cs1)C1Cc2ccccc2C1` [II-246], for which the Ki was 500 to 5000 nM at Itk, below 500 nM at ROCK and 500 to 5000 nM on PKA.
Take `O=C(Nc1nc(-c2c[nH]c3ncc(Br)cc23)cs1)C1CC1` [II-247]: the Ki at Itk is 500 to 5000 nM; at ROCK, below 500 nM; on PKA, 500 to 5000 nM.
Turning to `O=C(CC1CCCC1)Nc1nc(-c2c[nH]c3ncc(Br)cc23)cs1` [II-248], the figures for the inhibition constant Ki on Itk, on ROCK and at PKA were 500 to 5000 nM, 500 to 5000 nM and below 500 nM, respectively.
As for `O=C(CCc1ccccc1)Nc1nc(-c2c[nH]c3ncc(Br)cc23)cs1` [II-249], the Ki on Itk was 500 to 5000 nM; on ROCK, below 500 nM; on PKA, 500 to 5000 nM.
Consider `O=C(Cc1ccc(Br)cc1)Nc1nc(-c2c[nH]c3ncc(Br)cc23)cs1` [II-250], for which the Ki is 500 to 5000 nM at Itk and below 500 nM at PKA.
On to `O=C(CCNC(=O)OCc1ccccc1)Nc1nc(-c2c[nH]c3ncc(Br)cc23)cs1` [II-255], for which the Ki at Itk and on PKA was 500 to 5000 nM throughout.
In the case of `CCN(C(=O)CC1CCCC1)c1nc(-c2c[nH]c3ncc(Br)cc23)cs1` [II-256], the Ki on Itk lay within 500 to 5000 nM.
